Patent US5409935A, “Xanthine derivatives for the treatment of secondary nerve cell damage and functional disorders after cranio-cerebral traumas” (Hoechst Aktiengesellschaft, priority 1991, dated 1995)

Columns and labels:
[1] = system: peritoneal macrophages; test: Flow-cytometric free radical formation (oxidation of Dihydrorhodamine 123 to Rhodamine 123) in peritoneal macrophages, conA-stimulated; assay type: cell-based, white male Wistar rats; settings: for fluorescence, conA ± Comp. 1: 50 μM compound 1, conA-stimulated; for inhibition at 50 µM: conA-stimulated, * p < 0.05
Experimental: Peritoneal macrophages were obtained by peritoneal washing of white male Wistar rats aged 12 weeks with 10 ml of HBS-Hanks (Serva Feinbiochemica, Heidelberg). […] All cells were stored for a period of at most 2 hours after preparation until flow-cytrometric analysis at 4° C.
The cell volume and two fluorescences were simultaneously measured in about 10,000 cells per sample using a FACScan flow cytometer (Becton Dickinson, San Jose, Calif., USA). […] The flow cytometer was calibrated with standardized yellow-green-fluorescing microspheres of 4.3 μm diameter (Polysciences, St. Goar, F.R.G.).
(§1) Each measurement is based on the individual measurements of the cells contained in a sample (about 10,000). In order to keep the experimental boundary conditions as constant as possible, several experiments were carried out successively on the same day. In such a test series, in each case four different samples of an experimental group and their control were measured by flow cytometry at variously defined points of time. As a rule, 3-4 test series were carried out per experimental group.

[2] = known; cited from earlier work
[3] = arterial circulatory disorders, known; cited from earlier work
[4] = system: microglia cells; test: Flow-cytometric free radical formation (Rhodamine 123 fluorescence) in cultured microglia cells; assay type: cell-based, newborn rats; settings: for inhibition at 50 µM: Rattus norvegicus, Microglia, * p < 0.05
Experimental: In order to measure the intracellular generation of oxygen free radicals in peritoneal macrophages and in cultures of activated microglia, a flow-cytometric method was used (Rothe, Oser, Valet, Naturwissenschaften, 75, 354, 1988). Specifically, the free radical formation in individual viable cells was determined by measuring the intracellular oxidation of the membrane-permeable and non-fluorescent Dihydrorhodamine 123 (DHR; Eugene, Ore., USA) to the membrane-impermeable and intracellularly "trapped", green fluorescent Rhodamine 123.
DHR was dissolved in a 43.3 mM stock solution in N,N-dimethylformamide (DMF; Merck, Darmstadt, F.R.G.). The method is also suitable for the individual and simultaneous measurement of various subpopulations within a heterogeneous cell population; it therefore allows the exclusion of contaminating populations. Moreover, in another series of tests the identification of the cell type to be measured in each case was simultaneously confirmed during the flow-cytometric measurement by specific immunocytochemical antibody staining. Peritoneal macrophages were obtained by peritoneal washing of white male Wistar rats aged 12 weeks with 10 ml of HBS-Hanks (Serva Feinbiochemica, Heidelberg). The cells were sedimented at 200 g and 20° C. for 5 min and resuspended in HBS-Hanks (4×10^6 cells/ml). All cells were stored for a period of at most 2 hours after preparation until flow-cytrometric analysis at 4° C.
Microglia cultures from the brain of newborn rats were prepared (Giulian & Baker, J. Neuroscience, 1986, 6:2163-2178). After mechanical dissociation of the tissue in Dulbecco's modified Eagle's medium (Sigma Chemie, DMEM), supplemented with 2 g/l of NaHCO3 and 20% heat-inactivated fetal calf serum, the primary cultures were kept in […] culture flasks at 3% pCO2 and 37° C. for 2 to 4 weeks. Cells which grew on the surface of a continuous cell layer were removed by shaking, pelleted and resuspended (3×10^6 cells/ml) in Hepes Hanks buffered salt solution (5 mM Hepes, 0.15M NaCl, pH 7.35; Serva Feinbiochemica, Heidelberg, F.R.G.). In order to test the effect of the compound 1, in the experimental groups the DHR-loaded cells were incubated with 50 μM of the compound according to the invention for 15, 25, 35, 45 and 60 min, to be precise with or without parallel stimulation of free radical formation by concanavalin A (conA, 100 μM/ml). No active substance was added to the respective control groups.
The cell volume and two fluorescences were simultaneously measured in about 10,000 cells per sample using a FACScan flow cytometer (Becton Dickinson, San Jose, Calif., USA). Rhodamine 123 green fluorescence (500-530 nm) and propidium iodide red fluorescence (590-700 nm) were measured with excitation by an argon laser with a wavelength of 488 nm. The flow cytometer was calibrated with standardized yellow-green-fluorescing microspheres of 4.3 μm diameter (Polysciences, St. Goar, F.R.G.).
as §1

In the case of `CCCn1cnc2c1c(=O)n(CCCCC(C)=O)c(=O)n2C` [compound 1, 1-(5-oxohexyl)-3-methyl-7-n-propylxanthine], the “suppressive effect on free radical formation, dose dependence” value ([1]; 10 μM and 50 μM) is reported as “dose-dependent”, the “stimulatory effect of conA in the presence of compound 1” value ([1]; 50 μM compound 1) is reported as “blocked” and the “fluorescence, conA ± Comp. 1” value ([1]; 15 min) is reported as 9.0875 apparatusspecific units. For the same molecule, the “fluorescence, conA ± Comp. 1” value ([1]; 25 min) was 8.0867 apparatusspecific units, the “fluorescence, conA ± Comp. 1” value ([1]; 35 min) was 25.5 apparatusspecific units and the “fluorescence, conA ± Comp. 1” value ([1]; 45 min) was 31.755 apparatusspecific units. The “significance of effect of compound 1” value ([1]; 50 μM, all measurements with incubation times over 15 min) was “significant (p<0.05 in the t-test)”, the inhibition at 50 µM ([1]; Rattus norvegicus, Peritoneal macrophage, 25 min, 50 μM) was 60% and the inhibition at 10 µM ([1]; Rattus norvegicus, Peritoneal macrophage, 35 min, 10 μM, maximum conA activation, p<0.05 in the t-test) was 21%. For the same molecule, the inhibition at 50 µM ([1]; Rattus norvegicus, Peritoneal macrophage, 35 min, 50 μM) was 37%, the inhibition at 50 µM ([1]; Rattus norvegicus, Peritoneal macrophage, 0.75 h, 50 μM, 45 min) was 32% and the toxicity [2] was “low toxicity”. The vasodilating action [3] was “vasodilating action”, the “inhibition of free radical formation” value ([4]; 50 μM) was “clear inhibition” and the “fluorescence, Compound 1” value ([4]; 50 μM, 15 min) was 2060.6 apparatusspecific units. The “fluorescence, Compound 1” value ([4]; 50 μM, 25 min) was 2121.3 apparatusspecific units, the “fluorescence, Compound 1” value ([4]; 50 μM, 35 min) was 1170.4 apparatusspecific units and the “maximum depression of cellular Rhodamine 123 fluorescence” value ([4]; 50 μM, 35 min) was “about one-third”. The “fluorescence, Compound 1” value ([4]; 50 μM, 45 min) was 1556.9 apparatusspecific units, the “fluorescence, Compound 1” value ([4]; 50 μM, 60 min) was 910.4 apparatusspecific units and the “significance of effect of compound 1” value ([4]; 50 μM, incubation times of over 15 min) was “significant (p<0.05 in the t-test)”. It also gave an inhibition at 50 µM ([4]; 25 min) of 19%, an inhibition at 50 µM ([4]; 35 min) of 27% and an inhibition at 50 µM ([4]; 0.75 h, 45 min) of 23%. For the same molecule, the inhibition at 50 µM ([4]; 1 h, 60 min) was 27%.
